Patent publication EP0504184B1, “ACTIVE AGENT AGAINST RETROVIRUS GROUP VIRUSES, COMPOSITIONS CONTAINING SAME AND THEIR USE” (PREVISAN S.A., priority 1989, dated 1991)

What was measured:
[1] = system: virus VIH-1 dans des lymphocytes humains infectés; experiment: p24 antigen of treated HIV-1 infected human lymphocytes (optical density); format: cell-based; conditions: chloroazodine 1/3000
Source text: On a reproduit l'expérience de l'exemple 7, mais avec des lymphocytes humains infectés par du VIH-1. La chloroazodine a été utilisée à la dose de 1/3000 pendant 1 heure, 3 heures et 6 heures sur les cellules infectées. Tableau 6
Afin de conserver un nombre suffisant de lymphocytes vivants il a fallu limiter l'expérimentation à 6 heures.

virus VIH-1 = experiment: Infectivity of pretreated HIV-1 virus for the Supt-1 line (p24 antigen in cell lysates, optical density; phase-contrast microscopy); format: cell-based; conditions: for multiplication du virus VIH-1 dans les cellules Supt-1: after 1, 10 and 30 minutes incubation with the agent at ordinary temperature; for Mesure d'infectivité du virus VIH-1 (D.O.492): p24 in Supt-1 lysates
Source text: (§1) Ces essais comprennent comme matériel de départ : • de la N, N'-dichloroazodicarbonamidine (chloroazodine) à 95 % pure. La pureté a été examinée par chromatographie en couche mince et par un test de carbone-hydrogène (v. BRAZ G.I. et cons., J. Applied Chem. (USSR) 17,565-9 (1944)). • un surnageant de cultures de cellules (Molt-3) continuellement productrices de virus VIH-1. Le surnageant viral utilisé a une activité de transcriptase inverse de 1 x 10^6 cpm/ml. • des cellules d'une lignée T humaine continue de phénotype T4 (Supt-1) cultivée en milieu RPMI, additionné de 10 % de sérum de veau foetal et de 1 % de glutamine.
L' efficacité de la chloroazodine va être étudiée à deux niveaux : • a) action sur l'infectivité du virus VIH-1 pour la lignée Supt-1. • b) action sur l'intégration du génome viral dans l'ADN chromosomial des cellules Supt-1.
On fait incuber des préparations virales de VIH-1 à haut titre en présence de dilutions de chloroazodine de 1/1500 et de 1/3000 et pendant différents temps d'incubation. Pendant 30 minutes à 37°C, on traite préalablement les cellules Supt-1 par 10 µg/ml de polybrène, puis on les inocule avec les préparations de virus traités. On prévoit comme témoins, des cellules non inoculées, et des cellules inoculées par une préparation de virus non traités.
On détermine ensuite l'infectivité, à chaque passage cellulaire, de ces préparations en suivant la production virale (mesure de l'antigène p24 exprimé) dans les lysats cellulaires solubilisés des cellules Supt-1 examinées.
Les mesures du pouvoir infectieux du virus VIH-1 après incubation avec de la chloroazodine ressortent des tableaux 1 à 3 suivants, ainsi que des figures 1 à 3 qui correspondent aux tableaux 1 à 3. Sur ces figures, on trouve en ordonnée la densité optique (D.O.) et en abscisse le nombre de jours après l'infection. Le trait plein représente le témoin non traite, le trait interrompu la dilution de 1/1500 de chloroazodine, et le trait pointillé la dilution de 1/3000 de chloroazodine.

cellules Supt-1 = experiment: Toxicity test of chloroazodine towards Supt-1 cells (cell viability); format: cell-based, humaine
Source text: as §1
Essai de toxicité de la chloroazodine vis-à-vis des cellules Supt-1.
La chloroazodine à la dilution de 1/500, ce qui correspond à 2 mg/ml, est toxique pour les cellules Supt-1.

[2] = system: virus VIH-1 dans des cellules Molt-3 B; experiment: p24 antigen in culture supernatants of treated Molt-3 B cells continuously producing HIV (optical density); format: cell-based; conditions: for Mesure du pouvoir infectieux des virus VIH-1 dans des cellules Molt-3 B (densité optique): p24 in supernatant
Procedure: Des cellules Molt-3 B, continuellement productrices de virus VIH, ont été traitées par de la chloroazodine à des concentrations de 1/1500 et 1/3000 pendant des périodes de 1 minute, 10 minutes et 30 minutes.
Les antigènes p 24 exprimes dans les surnageants de culture ont été évalués après 24 h., 48 h., 72 h. et 96 h.
Pour mesurer cet effet en contournant la toxicité du produit pour les cellules infectées, on a choisi de prendre un nombre cellulaire extraordinairement élevé de manière à conserver un nombre très faible, mais suffisant, de cellules vivantes après 96 h. Tableau 5

NC(N=NC(N)=NCl)=NCl [chloroazodine, N, N'-dichloroazodicarbonamidine]
Mesure du pouvoir infectieux des virus VIH-1 dans des lymphocytes humains infectés (densité optique) ([1]; treatment 1 hour, 4 days after treatment): 0,170
Mesure du pouvoir infectieux des virus VIH-1 dans des lymphocytes humains infectés (densité optique) ([1]; treatment 1 hour, 7 days after treatment): 0,170
Mesure du pouvoir infectieux des virus VIH-1 dans des lymphocytes humains infectés (densité optique) ([1]; treatment 1 hour, 11 days after treatment): 0,114
Mesure du pouvoir infectieux des virus VIH-1 dans des lymphocytes humains infectés (densité optique) ([1]; treatment 3 hours, 4 days after treatment): 0,197
Mesure du pouvoir infectieux des virus VIH-1 dans des lymphocytes humains infectés (densité optique) ([1]; treatment 3 hours, 7 days after treatment): 0,158
Mesure du pouvoir infectieux des virus VIH-1 dans des lymphocytes humains infectés (densité optique) ([1]; treatment 3 hours, 11 days after treatment): 0,095
Mesure du pouvoir infectieux des virus VIH-1 dans des lymphocytes humains infectés (densité optique) ([1]; treatment 6 hours, 4 days after treatment): 0,192
Mesure du pouvoir infectieux des virus VIH-1 dans des lymphocytes humains infectés (densité optique) ([1]; treatment 6 hours, 7 days after treatment): 0,203
Mesure du pouvoir infectieux des virus VIH-1 dans des lymphocytes humains infectés (densité optique) ([1]; treatment 6 hours, 11 days after treatment): 0,078
multiplication du virus VIH-1 dans les cellules Supt-1 (virus VIH-1; dilution 1/1500): empêche totalement le virus VIH-1 de se multiplier
multiplication du virus VIH-1 dans les cellules Supt-1 (virus VIH-1; dilution 1/3000): empêche totalement le virus VIH-1 de se multiplier
temps pour l'éradication totale des virus (virus VIH-1; low concentration, in organic medium, conclusion from examples 3 to 5): ≤ 1 min
effet cytopathogène (virus VIH-1; phase-contrast microscopy, Supt-1 cells inoculated with virus pretreated with chloroazodine (control virus: syncytia from day 14)): aucun effet cytopathogène
Mesure d'infectivité du virus VIH-1 (D.O.492) (virus VIH-1; virus incubated 1 minute with chloroazodine 1/1500, 10 days after infection): 0,174 ± 0,002
Mesure d'infectivité du virus VIH-1 (D.O.492) (virus VIH-1; virus incubated 1 minute with chloroazodine 1/1500, 14 days after infection): 0,175 ± 0,016
Mesure d'infectivité du virus VIH-1 (D.O.492) (virus VIH-1; virus incubated 1 minute with chloroazodine 1/1500, 17 days after infection): 0,152 ± 0,016
Mesure d'infectivité du virus VIH-1 (D.O.492) (virus VIH-1; virus incubated 1 minute with chloroazodine 1/1500, 21 days after infection): 0,183 ± 0,026
Mesure d'infectivité du virus VIH-1 (D.O.492) (virus VIH-1; virus incubated 1 minute with chloroazodine 1/1500, 24 days after infection): 0,180 ± 0,008
Mesure d'infectivité du virus VIH-1 (D.O.492) (virus VIH-1; virus incubated 1 minute with chloroazodine 1/3000, 10 days after infection): 0,173 ± 0,009
Mesure d'infectivité du virus VIH-1 (D.O.492) (virus VIH-1; virus incubated 1 minute with chloroazodine 1/3000, 14 days after infection): 0,149 ± 0,002
Mesure d'infectivité du virus VIH-1 (D.O.492) (virus VIH-1; virus incubated 1 minute with chloroazodine 1/3000, 17 days after infection): 0,172 ± 0,016
Mesure d'infectivité du virus VIH-1 (D.O.492) (virus VIH-1; virus incubated 1 minute with chloroazodine 1/3000, 21 days after infection): 0,202 ± 0,003
Mesure d'infectivité du virus VIH-1 (D.O.492) (virus VIH-1; virus incubated 1 minute with chloroazodine 1/3000, 24 days after infection): 0,166 ± 0,004
Mesure d'infectivité du virus VIH-1 (D.O.492) (virus VIH-1; virus incubated 10 minutes with chloroazodine 1/1500, 10 days after infection): 0,146 ± 0,004
Mesure d'infectivité du virus VIH-1 (D.O.492) (virus VIH-1; virus incubated 10 minutes with chloroazodine 1/1500, 14 days after infection): 0,151 ± 0,006
Mesure d'infectivité du virus VIH-1 (D.O.492) (virus VIH-1; virus incubated 10 minutes with chloroazodine 1/1500, 17 days after infection): 0,165 ± 0,013
Mesure d'infectivité du virus VIH-1 (D.O.492) (virus VIH-1; virus incubated 10 minutes with chloroazodine 1/1500, 21 days after infection): 0,188 ± 0,016
Mesure d'infectivité du virus VIH-1 (D.O.492) (virus VIH-1; virus incubated 10 minutes with chloroazodine 1/1500, 24 days after infection): 0,180 ± 0,008
Mesure d'infectivité du virus VIH-1 (D.O.492) (virus VIH-1; virus incubated 10 minutes with chloroazodine 1/3000, 10 days after infection): 0,202 ± 0,021
Mesure d'infectivité du virus VIH-1 (D.O.492) (virus VIH-1; virus incubated 10 minutes with chloroazodine 1/3000, 14 days after infection): 0,146 ± 0,010
Mesure d'infectivité du virus VIH-1 (D.O.492) (virus VIH-1; virus incubated 10 minutes with chloroazodine 1/3000, 17 days after infection): 0,157 ± 0,005
Mesure d'infectivité du virus VIH-1 (D.O.492) (virus VIH-1; virus incubated 10 minutes with chloroazodine 1/3000, 21 days after infection): 0,182 ± 0,018
Mesure d'infectivité du virus VIH-1 (D.O.492) (virus VIH-1; virus incubated 10 minutes with chloroazodine 1/3000, 24 days after infection): 0,166 ± 0,004
Mesure d'infectivité du virus VIH-1 (D.O.492) (virus VIH-1; virus incubated 30 minutes with chloroazodine 1/1500, 10 days after infection): 0,185 ± 0,008
Mesure d'infectivité du virus VIH-1 (D.O.492) (virus VIH-1; virus incubated 30 minutes with chloroazodine 1/1500, 14 days after infection): 0,142 ± 0,010
Mesure d'infectivité du virus VIH-1 (D.O.492) (virus VIH-1; virus incubated 30 minutes with chloroazodine 1/1500, 17 days after infection): 0,176 ± 0,004
Mesure d'infectivité du virus VIH-1 (D.O.492) (virus VIH-1; virus incubated 30 minutes with chloroazodine 1/1500, 21 days after infection): 0,194 ± 0,007
Mesure d'infectivité du virus VIH-1 (D.O.492) (virus VIH-1; virus incubated 30 minutes with chloroazodine 1/1500, 24 days after infection): 0,163 ± 0,003
Mesure d'infectivité du virus VIH-1 (D.O.492) (virus VIH-1; virus incubated 30 minutes with chloroazodine 1/3000, 10 days after infection): 0,205 ± 0,013
Mesure d'infectivité du virus VIH-1 (D.O.492) (virus VIH-1; virus incubated 30 minutes with chloroazodine 1/3000, 14 days after infection): 0,176 ± 0,005
Mesure d'infectivité du virus VIH-1 (D.O.492) (virus VIH-1; virus incubated 30 minutes with chloroazodine 1/3000, 17 days after infection): 0,174 ± 0,015
Mesure d'infectivité du virus VIH-1 (D.O.492) (virus VIH-1; virus incubated 30 minutes with chloroazodine 1/3000, 21 days after infection): 0,169 ± 0,000
Mesure d'infectivité du virus VIH-1 (D.O.492) (virus VIH-1; virus incubated 30 minutes with chloroazodine 1/3000, 24 days after infection): 0,172 ± 0,031
toxicité vis-à-vis des cellules Supt-1 (cellules Supt-1; dilution 1/500 (2 mg/ml)): toxique
viabilité cellulaire (cellules Supt-1) (cellules Supt-1; dilution 1/1500 (660 µg/ml)): ne diminuent par contre pas la viabilité cellulaire
viabilité cellulaire (cellules Supt-1) (cellules Supt-1; dilution 1/3000 (330 µg/ml)): ne diminuent par contre pas la viabilité cellulaire
Mesure du pouvoir infectieux des virus VIH-1 dans des cellules Molt-3 B (densité optique) ([2]; chloroazodine 1/1500, treatment 1 min, 24 h. after treatment): 0,175
Mesure du pouvoir infectieux des virus VIH-1 dans des cellules Molt-3 B (densité optique) ([2]; chloroazodine 1/1500, treatment 1 min, 48 h. after treatment): 0,175
Mesure du pouvoir infectieux des virus VIH-1 dans des cellules Molt-3 B (densité optique) ([2]; chloroazodine 1/1500, treatment 1 min, 72 h. after treatment): 0,167
Mesure du pouvoir infectieux des virus VIH-1 dans des cellules Molt-3 B (densité optique) ([2]; chloroazodine 1/1500, treatment 10 min, 24 h. after treatment): 0,182
Mesure du pouvoir infectieux des virus VIH-1 dans des cellules Molt-3 B (densité optique) ([2]; chloroazodine 1/1500, treatment 10 min, 48 h. after treatment): 0,181
Mesure du pouvoir infectieux des virus VIH-1 dans des cellules Molt-3 B (densité optique) ([2]; chloroazodine 1/1500, treatment 10 min, 72 h. after treatment): 0,145
Mesure du pouvoir infectieux des virus VIH-1 dans des cellules Molt-3 B (densité optique) ([2]; chloroazodine 1/1500, treatment 30 min, 24 h. after treatment): 0,194
Mesure du pouvoir infectieux des virus VIH-1 dans des cellules Molt-3 B (densité optique) ([2]; chloroazodine 1/1500, treatment 30 min, 48 h. after treatment): 0,155
Mesure du pouvoir infectieux des virus VIH-1 dans des cellules Molt-3 B (densité optique) ([2]; chloroazodine 1/1500, treatment 30 min, 72 h. after treatment): 0,173
Mesure du pouvoir infectieux des virus VIH-1 dans des cellules Molt-3 B (densité optique) ([2]; chloroazodine 1/3000, treatment 1 min, 24 h. after treatment): 0,247
Mesure du pouvoir infectieux des virus VIH-1 dans des cellules Molt-3 B (densité optique) ([2]; chloroazodine 1/3000, treatment 1 min, 48 h. after treatment): 0,154
Mesure du pouvoir infectieux des virus VIH-1 dans des cellules Molt-3 B (densité optique) ([2]; chloroazodine 1/3000, treatment 1 min, 72 h. after treatment): 0,170
Mesure du pouvoir infectieux des virus VIH-1 dans des cellules Molt-3 B (densité optique) ([2]; chloroazodine 1/3000, treatment 10 min, 24 h. after treatment): 0,180
Mesure du pouvoir infectieux des virus VIH-1 dans des cellules Molt-3 B (densité optique) ([2]; chloroazodine 1/3000, treatment 10 min, 48 h. after treatment): 0,176
Mesure du pouvoir infectieux des virus VIH-1 dans des cellules Molt-3 B (densité optique) ([2]; chloroazodine 1/3000, treatment 10 min, 72 h. after treatment): 0,152
Mesure du pouvoir infectieux des virus VIH-1 dans des cellules Molt-3 B (densité optique) ([2]; chloroazodine 1/3000, treatment 30 min, 24 h. after treatment): 0,211
Mesure du pouvoir infectieux des virus VIH-1 dans des cellules Molt-3 B (densité optique) ([2]; chloroazodine 1/3000, treatment 30 min, 48 h. after treatment): 0,162
Mesure du pouvoir infectieux des virus VIH-1 dans des cellules Molt-3 B (densité optique) ([2]; chloroazodine 1/3000, treatment 30 min, 72 h. after treatment): 0,176
production de VIH par des cellules infectées ([2]; conclusion of example 7, Molt-3 B cells, chloroazodine 1/1500 and 1/3000): capable d'empêcher la production de VIH par des cellules infectées
